# Assay results from US12234233B2, “Crystal form of phosphodiesterase inhibitor, preparation method therefor and use thereof” (TRANSTHERA SCIENCES (NANJING), INC., priority 2019, dated 2025).
# Like-named read-outs stand apart in the source and are kept apart here.
# Key:
# [1] = Stability test of different crystal forms; type: physicochemical
# Method: Test substances: the crystal form I was prepared by example 2 of the present invention, the crystal form II was prepared by example 16 of the present invention, the crystal form III was prepared by example 20 of the present invention, the crystal form IV was prepared by example 24 of the present invention, the crystal form V was prepared by example 25 of the present invention, the crystal form VI was prepared by example 27 of the present invention, and the crystal form VII was prepared by example 31 of the present invention.
# Method: the appropriate amount of different test substances were taken, and placed at 105° C. for 3 days, and at 60° C. and RH 92.5% under light for 5 days and 10 days, respectively; and the samples were collected on day 0, day 3, day 5 and day 10 to investigate the changes in the trait and content of the samples.
# Table 5 and Table 6 show the results of the trait and content after placement at 105° C. for 3 days. Table 7 and Table 8 show the results of the trait and content after placement at 60° C. and RH 92.5% under light for 5 days. Table 9 and Table 10 show the results of the trait and content after placement at RH 92.5% under light for 10 days.
# [2] = Pharmacokinetic evaluation in rats; type: in vivo, male SD rats
# Method: Test substances: the compound of formula (I) was prepared by example 1 of the present invention, and the crystal form I was prepared by example 2 of the present invention.
# Administration to Animals and Sample Collection:
# (§1) the compound of formula (I) for the experiment was dissolved with 2% DMSO+10% PEG400+88% (28% HP-3-CD) physiological saline to prepare a solution; the solution of the test substance was administered to SD rats by gavage at a dose of 5.0 mg/kg; and the blood sampling time points were 15 min, 30 min, 1 h, 2 h, 4 h, 6 h, 8 h and 24 h after administration.
# as §1, with “The compound” for “the compound”, “by intravenous bolus” for “by gavage”, “of 1” for “of 5.0”, “were 5 min,” for “were”
# The crystal form I for the experiment was dissolved with 5% DMSO+10% PEG400+85% (20% captisol) physiological saline solution to prepare a solution; the solution of the test substance was administered to SD rats by gavage at a dose of 60.0 mg/kg; and the blood sampling time points were 15 min, 30 min, 1 h, 2 h, 4 h, 8 h, 24 h, 30 h and 48 h after administration.
# The crystal form I for the experiment was dissolved with 2% DMSO+10% PEG400+88% (28% HP-β-CD) physiological saline to prepare a solution; the solution of the test substance was administered to SD rats by intravenous bolus at a dose of 5 mg/kg; and the blood sampling time points were 5 min, 15 min, 30 min, 1 h, 4 h, 8 h, 12 h and 24 h after administration.
# Compound of formula (I): the ordinary SD rats were used and fixed; the tails of the rats were heated in a water bath 10 minutes before each time point; and about 100 μL of blood was collected via a tail vein, and then placed in an anticoagulation tube containing EDTA-K2. The blood sample was centrifuged at 8000 rpm at 4° C. for 6 min to obtain a plasma sample, which was prepared within 30 minutes after blood collection. The plasma was stored in a refrigerator at −80° C. before the test.
# Crystal form I: the rats were subjected to jugular vein cannulation (JVC); each time, about 0.35 ml of blood was collected from the rats via a jugular vein cannula into a centrifuge tube containing 5 μl of 15% EDTA-K2; the mixture was gently mixed to obtain a homogeneous mixture, and then the centrifuge tube was placed in an ice bath immediately. Within 1 hour after collecting whole blood, the mixture was centrifuged at 4° C. and 2400×g for 5 minutes, and the supernatant was immediately collected to obtain a plasma sample. The plasma was stored in a refrigerator at −80° C. before the test.
# the plasma sample to be tested was taken out from the −80° C. refrigerator, subjected to natural melting at room temperature, and then vortexed for 5 min; […] of the plasma sample was precisely pipetted into a 1.5 mL centrifuge tube; […] of the internal standard working solution (tolbutamide in methanol) at a concentration of 100 ng/mL was added, and the mixture was mixed homogeneously; the homogeneous mixture was vortexed for 5 min, and then centrifuged at 12000 rpm for 5 min; 50 μL of the supernatant was precisely pipetted into a 96-well plate pre-filled with 150 μL of water/well; and the plate was vortexed for 5 min for homogenization, and subjected to LC-MS/MS assay, with a sample loading volume of 5 μL. […]
# [3] = male SD rats, gavage 60.0 mg/kg
# [4] = male SD rats, intravenous bolus 5 mg/kg
structure (smiles),measurement,setting,value
"CCc1cc2c(N3CCC(C)(OC)CC3)c(C#N)c(=O)[nH]c2cn1 [Crystal form I, 6-ethyl-4-(4-methoxy-4-methylpiperidin-1-yl)-2-oxo-1,2-dihydro-1,7-diazanaphthal ene-3-carbonitrile]",Content,[1]; 0 day,99.7%
same,Trait,[1]; 0 day,Yellow powder
same,Content,[1]; Placed at 60° C. for 5 days,99.8%
same,Content,[1]; Placed at RH 92.5% for 5 days,99.7%
same,Content,[1]; Placed at RH 92.5% for 10 days,100.3%
same,Trait,[1]; Placed at RH 92.5% for 10 days,Yellow powder
same,Content,[1]; Placed under light for 5 days,99.7%
same,Content,[1]; Placed under light for 10 days,99.3%
same,Trait,[1]; Placed under light for 10 days,Yellow powder
same,Tmax,"[2]; Sprague-Dawley, rat, plasma, po, male SD rats, gavage 60.0 mg/kg",1.67 h
same,AUC(0-t),"[2]; Sprague-Dawley, rat, plasma, po, male SD rats, gavage 60.0 mg/kg, read-out: AUClast PO",40100 ng·h/mL
same,AUC(0-t),"[2]; Sprague-Dawley, rat, plasma, male SD rats, intravenous bolus 5 mg/kg, read-out: AUClast iv",2450 ng·h/mL
same,pharmacokinetic characteristics,"[2]; conclusion from Table 2, rats",excellent pharmacokinetic characteristics
same,AUClast PO/Dose,[2]; [3],667.8 h*ng/mL per mg/kg
same,tz1/2 PO,[2]; [3],3.91 h
same,AUClast iv/Dose,[2]; [4],489.4 h*ng/mL per mg/kg
same,Cl_obs iv,[2]; [4],35.5 mL/min/kg
same,Vz_obs iv,[2]; [4],0.898 L/kg
same,tz1/2 iv,[2]; [4],0.453 h
